The assay has as its target T1, CDK9/cyclin K (Homo sapiens, UniProt P50750).
T1 construct: purchased Invitrogen (ThermoFisher) PV4335
The assay is described as follows: TR-FRET Lanthascreen Eu Kinase Binding assay. The conditions noted are these: for Curve Class: classifies curves by quality of fit, efficacy and number of asymptotes; for Efficacy: difference between highest and lowest activity across concentration range; for Efficacy / Max Resp: in %. The text has this: The TR-FRET Lanthascreen Eu Kinase Binding assay for CDK9/cyclin K was purchased from ThermoFisher and performed as per manufacturer instructions.
A general note: Time-resolved FRET reads energy transfer from a long-lived donor to a nearby acceptor.

Where [1] appears, read: logarithm of AC50, read-out: Log AC50 (converted).
The mark [2] stands for this setting: concentration at which half maximal activity is observed, 7-point qHTS, read-out: AC50.

As a reminder, the AC50 is the concentration at which the activity in the assay is half-maximal.

The structures appear in SMILES notation. Like-named read-outs stand apart in the source and are kept apart here.

T1 sequence (P50750 whole entry): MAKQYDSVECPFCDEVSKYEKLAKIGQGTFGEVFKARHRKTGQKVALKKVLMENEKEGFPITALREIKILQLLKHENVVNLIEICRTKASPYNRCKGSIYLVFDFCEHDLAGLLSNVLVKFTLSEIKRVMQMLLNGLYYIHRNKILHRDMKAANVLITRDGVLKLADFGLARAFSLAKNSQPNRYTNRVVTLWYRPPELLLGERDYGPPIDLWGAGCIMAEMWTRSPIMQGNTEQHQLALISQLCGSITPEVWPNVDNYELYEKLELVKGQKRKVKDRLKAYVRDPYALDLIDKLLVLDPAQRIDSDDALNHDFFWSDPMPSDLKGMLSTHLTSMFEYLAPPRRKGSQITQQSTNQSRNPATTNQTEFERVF
T1 sequence (O75909 whole entry partner): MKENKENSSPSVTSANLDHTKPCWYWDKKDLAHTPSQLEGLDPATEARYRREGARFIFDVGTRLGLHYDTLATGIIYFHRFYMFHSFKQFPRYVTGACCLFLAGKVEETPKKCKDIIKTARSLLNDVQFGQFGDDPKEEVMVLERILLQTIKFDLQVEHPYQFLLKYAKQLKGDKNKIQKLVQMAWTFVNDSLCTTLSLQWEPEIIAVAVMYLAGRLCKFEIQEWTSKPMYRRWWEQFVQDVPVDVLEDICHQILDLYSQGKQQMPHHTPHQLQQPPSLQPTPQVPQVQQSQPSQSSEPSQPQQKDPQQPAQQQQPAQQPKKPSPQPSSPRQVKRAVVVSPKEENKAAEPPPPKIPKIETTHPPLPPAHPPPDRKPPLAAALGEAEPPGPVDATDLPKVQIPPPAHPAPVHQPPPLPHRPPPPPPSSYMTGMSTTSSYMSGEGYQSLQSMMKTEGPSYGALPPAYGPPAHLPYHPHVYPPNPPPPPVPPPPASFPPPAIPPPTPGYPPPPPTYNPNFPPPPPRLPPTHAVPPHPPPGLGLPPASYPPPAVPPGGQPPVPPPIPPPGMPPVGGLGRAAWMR

In the case of `O=C1Nc2ccc3ncsc3c2/C1=C/Nc1ccc([S+](=O)([O-])Nc2ccccn2)cc1` [GW8510], the “Curve Class” value is on record as -1.1, the Efficacy is reported as -99.4 and the “Max Resp” value was -92.5.
Regarding `COc1ccc(-c2oc3ncnc(N)c3c2-c2ccc(NC(=O)Nc3cc(C(F)(F)F)ccc3F)cc2)cc1` [GW768505A], the “Curve Class” value is reported as -1.1, the Efficacy was -85.9 and the “Max Resp” value was -78.2. For the same molecule, under setting [1], the AC50 is 631 nM.
Consider `O=C(Nc1nc2ccccc2n1CCN1CCOCC1)c1cccc([N+](=O)[O-])c1` [IRAK-1-4 Inhibitor I], for which the “Curve Class” value is recorded as -1.2 and the Efficacy is listed as -75.6.
With `O=C1Nc2ccccc2/C1=C1/Nc2ccccc2/C1=N\OCCC(O)CO` (centres unmarked) [Indirubin_E8], the “Curve Class” value is -1.1, the Efficacy is given as -83.1 and the “Max Resp” value is -81.2.
Taken in the same sequence, the figures for `Nc1nc(Nc2ccc(S(N)(=O)=O)cc2)nn1C(=O)c1c(F)cccc1F` [JNJ7706621] were -1.1, -93.4 and -97.5.
Consider `CN(C)C/C=C/C(=O)Nc1cccc(C(=O)Nc2ccc(Nc3nccc(-c4cccnc4)n3)cc2)c1` [JNK-IN-7], for which the “Curve Class” value was -1.1, the Efficacy is on record as -86.0 and the “Max Resp” value is listed as -91.6.
For the molecule `CCOC(=O)c1c(/C(C#N)=C\N)c2ccc(Cl)c(Cl)c2n1C` [KH-CB19], the “Curve Class” value is listed as -1.1, the Efficacy is -88.2 and the “Max Resp” value is -90.2. The molecule also registered an AC50 (AC50, concentration at which half maximal activity is observed, 7-point qHTS) of 336 nM.
On to `O=C1Cc2c([nH]c3ccc(Br)cc23)-c2ccccc2N1` [Kenpaullone], for which the “Curve Class” value is reported as -1.1, the Efficacy is -80.5 and the “Max Resp” value was -37.7. Under setting [2], the AC50 was found to be 336 nM.
As for `COc1ccccc1-c1cc(Nc2cccc(C[S+](N)(=O)[O-])c2)ncn1` [LDC000067], the “Curve Class” value is reported as -1.1, the Efficacy is listed as -96.3 and the “Max Resp” value is on record as -94.5.
Consider `O=C1NC(=O)C(c2cnc3ccccn23)=C1c1cn2c3c(cc(F)cc13)CN(C(=O)N1CCCCC1)CC2` [LY2090314], for which the “Curve Class” value was -1.1, the Efficacy is -79.5 and the “Max Resp” value is on record as -83.9. Further, the AC50 under setting [1] was 631 nM.
As to `CC(C)c1c2cc(-c3ccnc(N[C@H]4CC[C@H](NC5CCOCC5)CC4)n3)ccc2nn1C` [LY2857785], the “Curve Class” value was found to be 5, the Efficacy was -28.1 and the “Max Resp” value is reported as -89.7.
As for `C[C@@H](Oc1ccc2[nH]nc(/C=C/c3cnn(CCO)c3)c2c1)c1c(Cl)cncc1Cl` [LY2874455], the “Curve Class” value is -1.1, the Efficacy is listed as -87.6 and the “Max Resp” value is reported as -91.8. In addition, the concentration at half-maximal activity (AC50) under setting [2] worked out at 299 nM.
Consider `Cc1ccc(C(N)=O)cc1Nc1nccc(-c2cn(C(C)C)c3cnccc23)n1` [NCGC00263020-01], for which the “Curve Class” value was -1.1, the Efficacy is -90.3 and the “Max Resp” value is recorded as -99.8.
Regarding `Cc1ccc([N+](=O)[O-])cc1[S+](=O)([O-])N(C)/N=C/c1cnc2ccc(Br)cn12` [NCGC00346500-05, PIK-75], the “Curve Class” value was 5, the Efficacy is on record as -24.5 and the “Max Resp” value is listed as -95.2.
Turning to `N#Cc1ccnc(Nc2cc(C3CCN(C4COC4)CC3)cc(N3CCC(F)(F)C3)n2)c1` [NCGC00384250-01], the “Curve Class” value was -1.2, the Efficacy is -76.1 and the “Max Resp” value is reported as -87.1. Further, under setting [2], the AC50 came out at 189 nM.
As for `O=[N+]([O-])c1cccc2[nH]c(CNc3nc(N4CCOCC4)nc4c3ncn4-c3ccsc3)nc12` [NCGC00386926-01], the “Curve Class” value was -1.2, the Efficacy was -69.1 and the “Max Resp” value is -72.6.

These data come from article PMC6013488, “A widely-applicable high-throughput cellular thermal shift assay (CETSA) using split Nano Luciferase” (Scientific Reports, 2018).
